According to article PMC8905628, “Integrin α6-Targeted Molecular Imaging of Central Nervous System Leukemia in Mice” (Frontiers in Bioengineering and Biotechnology, 2022):

Columns and labels:
[1] = tested on: Human ITGA6 & ITGB4 Heterodimer Protein; experiment: Microscale thermophoresis affinity of S5 peptides; assay type: binding; settings: cyclic vs straight S5 peptide; preliminary experiments, Supplementary Figures S2A, S2B; MST, Monolith NT.115, protein 100 nM, peptide from 100 uM diluted 1:1, PBST, 80 % LED/excitation power, medium MST power
Procedure: The affinity of cyclic S5 peptide, straight S5 peptide, NOTA-S5 and Gd-S5 with Human ITGA6 & ITGB4 Heterodimer Protein (Manufactured by Sino Biological Catalog Number: CT069-H2508H) was determined by microscale thermophoresis (MST). Firstly, 0.05% PBST was prepared, 25ul of Tween 20 was added to 50ml of PBS and filtered through 0.22um filter paper. Then dilute the peptide: dissolve the above 4 peptides into 1mM storage solution concentration. Take 20 ul of peptide and mix with 80 ul of PBST and dilute to a working concentration of […]. Next dilute the dye: Take 2 µL of RED-tris-NTA II dye (Manufactured by NanoTemper Cat# MO-L018 5 µM) and mix with 98 µl of PBST to obtain 100 µL of dye (100 nM). Finally, 100 ul of Human ITGA6 & ITGB4 Heterodimer Protein (400 nM) was mixed with 100 ul of dye (100 nM) and incubated at room temperature for 30 min, at which time the protein concentration was 200 nM. 10 ul of peptide (200 uM) was added to the PCR tube, and 16 tubes were diluted 1:1 with PBST. Then take 3 ul of protein/dye mixture in the PCR tube, add 3 ul of […] concentrations of peptide and mix well. The concentration of protein was 100 nM and the concentration of peptide in the first tube was 100 uM. […] Kd was calculated by Kd fitting mode using MO.Affinity Analysis.

[2] = tested on: NALM6 cells; experiment: Immunofluorescence / confocal microscopy of S5 peptide in NALM6 cells; assay type: cell-based, human
Procedure: Approximately 1 × 10^6 NALM6 cells were seeded on cover slips in 24-well plates and incubated for 24 h. Subsequently, the 80 μM S5 peptide was added into the culture medium and incubated with cells for 4 h, while the blank control group was added to the same volume of RPMI 1640 medium. After that, cells of each group were washed with PBS five times, fixed with 4% paraformaldehyde for 15 min, permeabilized with 0.1% Triton X-100 (Sigma-Aldrich, Germany), and blocked with 1% BSA for 30 min. The cover slips were incubated with the anti-integrin α6 antibody (Abcam, ab181551) at 4°C overnight, followed by incubation with streptavidin-Cy3 (Thermo Fisher 434315, United States) and the goat anti-mouse Alexa Fluor 488 secondary antibody (Abcam, ab150113) for 1 h at room temperature in a dark chamber. Finally, cover slips were incubated with 1 μg/ml DAPI and mounted with slides with ProLong gold antifade (Invitrogen P26930, United States). Fluorescence images were visualized and captured under a confocal microscopy confocal laser-scanning system (Zeiss, LSM980, Germany) at 40× and 100× magnification. Co-localization was analyzed by ImageJ (http://rsbweb.nih.gov/ij/) and the co-localization finder plug-in.

[3] = tested on: integrin α6; settings: cited from earlier work
Description: We further translated the RWY peptide into an integrin α6-targeted PET probe and MRI probe that have been successfully applied for tumor imaging of the integrin α6 expression ([Feng GK et al., 2019]; [Xiao et al., 2019]; [Zhang Y et al., 2020]; [Gao et al., 2020]). Recently, our group improved the characteristics of the peptide by alanine scanning and obtained a novel integrin α6-targeting peptide […] (dubbed S5) which ...

[4] = tested on: NALM6-luciferase tumor-bearing mice; experiment: T1-weighted MR imaging of NALM6-luciferase tumor-bearing mice (CNS-L); assay type: in vivo, NOD/SCID mice; settings: 0.03 mmol of Gd/kg, tail vein, 3.0 T, baseline and 5, 10, 15 min post-injection
Procedure: The human ALL cell lines including NALM6, Reh, Jurkat, and CCRF-CEM were purchased from the American Type Culture Collection (ATCC) and cultured in RPMI 1640 medium supplemented with 10% fetal bovine serum and 0.5% penicillin–streptomycin and incubated at 37 °C/5%CO2. To facilitate tumor monitoring, luminescent cells NALM6-luciferase were generated by stable transfection with luciferase. Female NOD/SCID mice (6 weeks old) were purchased from Vita River, Charles River Laboratories, China (Beijing, China). NOD/SCID mice were injected via the tail vein with 1 × 10^6 luciferased cells suspended in 150 µl of sterile phosphate-buffered saline (PBS). Bioluminescence imaging was applied to monitor the leukemic burden. All animal experiments were approved by the Institutional Animal Care and Use Committee (IACUC) at the Sun Yat-sen University Cancer Center (IACUC approval number L102012020070M), and the welfare and treatment of the laboratory animals were in accordance with the corresponding animal management regulations.
Bioluminescence confirmed CNS-L mice were used for MR and PET imaging studies in the next few days after the NIRF imaging. MR imaging was performed using a Philips Achieva 3.0 T system. Mice were anesthetized with 2,2,2-Tribromoethanol ([…]), fixed on the holder, and placed into the mouse-imaging coil. […]

In the case of CRWYDANAC [S5], the “binding of cyclic and straight peptides compared” value [1] is reported as “equivalent”, the “cellular uptake of the S5 peptide” value ([2]; 80 μM S5 peptide, 4 h, green fluorescence) is reported as “entered the cytoplasm through cytocytosis after binding to the cell membrane” and the “cellular localization of the S5 peptide” value ([2]; 80 μM S5 peptide, 4 h of co-culturing, fluorescence microscopy) is reported as “enriched and localized at the nuclei of NALM6 cells”. For the same compound, the “location of integrin α6 and the S5 peptide confirmed by confocal microscopy (Discussion)” value ([2]; NALM6 cells, as summarised in Discussion) was “dominating membrane location” and the “specificity and affinity to integrin α6” value ([3]; vs RWY, obtained by alanine scanning, ref Mei et al., 2020, Lin et al., 2021) was “higher specificity and affinity”.
In the case of `O=C([O-])CN(CCN(CC(=O)[O-])CC(=O)O)CCN(CC(=O)[O-])CC(=O)O.[Gd+3]` [Gd-DTPA, gadolinium-diethylenetriamine pentaacetic acid], the MR enhancement signals [4] is reported as “did not show obvious enhancement signals”.
For CRWYDENAC [reference compound], the “binding to integrin α6” value ([3]; identified by phage display technology, ref Feng G et al., 2019) is given as “could bind specifically to integrin α6”.
